# Assay results taken from article PMC10698194 (Nature Communications, 2023).
# “And” between values parts separate entries of the source, which are not always exact repeats. Equal values may be shown once. Read-outs that look alike come from different tables or passages of the source.
# Legend:
# [1] = target: T1, human KOR WT (Homo sapiens, UniProt P41145); experiment: cAMP inhibition assay normalized to salvinorin A; type: cell-based
# T1 construct: FLAG; expressed in transfected cells; host or cells: HEK293T, transient
# T1 sequence (P41145 whole entry): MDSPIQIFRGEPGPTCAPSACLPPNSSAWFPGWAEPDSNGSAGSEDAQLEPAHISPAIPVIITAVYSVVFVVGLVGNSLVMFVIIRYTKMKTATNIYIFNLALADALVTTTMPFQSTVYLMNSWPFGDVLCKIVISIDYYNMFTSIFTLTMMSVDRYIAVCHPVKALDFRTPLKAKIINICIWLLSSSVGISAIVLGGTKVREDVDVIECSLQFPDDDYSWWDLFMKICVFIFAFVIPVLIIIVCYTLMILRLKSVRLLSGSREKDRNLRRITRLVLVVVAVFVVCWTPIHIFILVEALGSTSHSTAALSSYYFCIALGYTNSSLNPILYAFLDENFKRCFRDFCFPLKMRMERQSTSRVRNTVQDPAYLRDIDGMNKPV
# [2] = target: T2, human KOR E297A (Homo sapiens, UniProt P41145, E297A); type: cell-based
# T2 construct: FLAG; expressed in transfected cells; host or cells: HEK293T
# T2 sequence (P41145 whole entry E297A): as the sequence (P41145 whole entry) above, with E297A counted along it
# [3] = human
# Method: (§1) Blood was drawn from healthy volunteers devoid of any medication for 14 days from the antecubital vein using 21 G needles and collected in a serum clot activator tube (4 mL tubes, Greiner bio-one). […] Volunteers gave written informed consent before blood donation. […] Blood samples were collected into Vacuette® clot activator tubes (Greiner Bio-One, Austria). After clotting of about 2 h, the samples were centrifuged at 2200 × g for 15 min at 22 °C. The serum was removed and centrifuged again to remove lipids and cell particles at 16,000 × g at 4 °C for 20 min. […] The samples were incubated at 37 °C under continuous shaking at 300 rotations-per-minute. […] The samples were mixed well and incubated on ice for 10 min. For the protein precipitation, 30 µL of a 20% (w/v) trichloroacetic acid was added and incubated on ice for 15 min. The clear supernatant was harvested by centrifugation at 16,000 × g at 4 °C for 20 min and this sample was used for HPLC analysis. The chromatography HPLC system was a ThermoFisher Ultimate 3000 equipped with a pump, autosampler and single wavelength detector. […] The remaining peptide was calculated relative to the AUC at time point zero. The data points were fitted to a one-phase decay function and to determine the resulting half-life of the peptide in serum.
# (§2) 0.1% trifluoroacetic acid in water and acetonitrile/water trifluoroacetic acid 90/10/0.1% (v/v/v) with a
# linear separation gradient over 30 min.
# [4] = target: T3, mouse KOR (Mus musculus, UniProt P33534); experiment: cell-based; parameters: expressed in transfected cells
# Target sequence in this assay (P33534 whole entry): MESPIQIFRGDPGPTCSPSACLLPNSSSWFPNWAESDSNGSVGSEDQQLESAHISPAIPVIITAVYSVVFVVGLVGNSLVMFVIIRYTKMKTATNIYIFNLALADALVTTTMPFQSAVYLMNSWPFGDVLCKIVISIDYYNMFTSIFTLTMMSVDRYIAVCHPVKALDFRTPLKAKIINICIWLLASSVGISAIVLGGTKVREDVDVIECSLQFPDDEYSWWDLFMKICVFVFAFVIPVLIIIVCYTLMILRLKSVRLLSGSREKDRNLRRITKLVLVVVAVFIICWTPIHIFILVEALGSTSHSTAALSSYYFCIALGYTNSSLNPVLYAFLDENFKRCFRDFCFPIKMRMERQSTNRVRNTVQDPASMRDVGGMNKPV
# [5] = target: T4, human KOR L309A (Homo sapiens, UniProt P41145, L309A); type: cell-based
# T4 construct: FLAG; expressed in transfected cells; host or cells: HEK293T
# T4 sequence (P41145 whole entry L309A): as the sequence (P41145 whole entry) above, with L309A counted along it
# [6] = target: T5, human KOR E209A (Homo sapiens, UniProt P41145, E209A); type: cell-based
# T5 construct: FLAG; expressed in transfected cells; host or cells: HEK293 / HEK293T, transient
# T5 sequence (P41145 whole entry E209A): as the sequence (P41145 whole entry) above, with E209A counted along it
# [7] = target: T5, human KOR E209A; experiment: BRET β-arrestin-2 biosensor assay; type: cell-based
# [8] = in vitro; conditions: human, serum, serum stability, amount remaining, Figure S15
# Method: as §1, §2
# linear separation gradient over 30 min.
# [9] = target: T1, human KOR WT; experiment: BRET β-arrestin-2 biosensor assay; type: cell-based
# [10] = target: T4, human KOR L309A; experiment: BRET β-arrestin-2 biosensor assay; type: cell-based
# [11] = target: T1, human KOR WT; type: cell-based
# [12] = target: T2, human KOR E297A; experiment: BRET β-arrestin-2 biosensor assay; type: cell-based
# [13] = target: T3, mouse KOR; experiment: cell-based; parameters: expressed in transfected cells; host or cells: HEK293T, transient; conditions: for β-arrestin-2 recruitment, normalized: replicates
# Target sequence in this assay (P33534 whole entry): as the sequence (P33534 whole entry) above
# Target sequence in this assay (P32121 whole entry partner): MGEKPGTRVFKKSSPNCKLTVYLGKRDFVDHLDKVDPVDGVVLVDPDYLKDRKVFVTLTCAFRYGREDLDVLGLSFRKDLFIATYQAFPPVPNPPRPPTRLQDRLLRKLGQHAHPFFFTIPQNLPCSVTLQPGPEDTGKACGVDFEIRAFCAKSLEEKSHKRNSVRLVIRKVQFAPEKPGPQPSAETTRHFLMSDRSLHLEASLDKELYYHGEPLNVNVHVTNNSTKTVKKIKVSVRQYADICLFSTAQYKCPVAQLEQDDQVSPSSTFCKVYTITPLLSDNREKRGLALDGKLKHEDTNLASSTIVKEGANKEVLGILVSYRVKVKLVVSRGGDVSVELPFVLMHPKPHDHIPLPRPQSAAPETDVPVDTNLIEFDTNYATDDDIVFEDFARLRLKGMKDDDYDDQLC
# [14] = target: T3, mouse KOR; experiment: biochemical; type: binding; parameters: expressed in transfected cells; conditions: for specific [3H]DPN binding, normalized to 100%: replicates
# Target sequence in this assay (P33534 whole entry): as the sequence (P33534 whole entry) above
# [15] = target: T6, human DOR (Homo sapiens, UniProt P41143); experiment: [35S]GTPγS binding assay, CHO membranes; type: biochemical
# T6 construct: expressed in transfected cells
# T6 sequence (P41143 whole entry): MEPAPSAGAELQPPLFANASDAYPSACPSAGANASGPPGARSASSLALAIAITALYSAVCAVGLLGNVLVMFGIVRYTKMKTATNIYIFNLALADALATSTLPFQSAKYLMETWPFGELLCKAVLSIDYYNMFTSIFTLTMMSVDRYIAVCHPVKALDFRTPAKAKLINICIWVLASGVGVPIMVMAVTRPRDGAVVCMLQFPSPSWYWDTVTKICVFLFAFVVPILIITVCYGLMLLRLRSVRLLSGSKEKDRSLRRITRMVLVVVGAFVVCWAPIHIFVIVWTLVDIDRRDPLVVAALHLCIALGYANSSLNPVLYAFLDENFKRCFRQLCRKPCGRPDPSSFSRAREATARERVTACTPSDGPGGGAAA
# [16] = target: human KOR (Homo sapiens, UniProt P41145); experiment: [35S]GTPγS binding assay, CHO membranes; type: biochemical; parameters: expressed in transfected cells; conditions: for stimulation of [35S]GTPγS binding, normalized: replicates
# human KOR, sequence (P41145 whole entry): as the sequence (P41145 whole entry) above
# [17] = target: T7, human MOR (Homo sapiens, UniProt P35372); experiment: [35S]GTPγS binding assay, CHO membranes; type: biochemical
# T7 construct: expressed in transfected cells
# T7 sequence (P35372 whole entry): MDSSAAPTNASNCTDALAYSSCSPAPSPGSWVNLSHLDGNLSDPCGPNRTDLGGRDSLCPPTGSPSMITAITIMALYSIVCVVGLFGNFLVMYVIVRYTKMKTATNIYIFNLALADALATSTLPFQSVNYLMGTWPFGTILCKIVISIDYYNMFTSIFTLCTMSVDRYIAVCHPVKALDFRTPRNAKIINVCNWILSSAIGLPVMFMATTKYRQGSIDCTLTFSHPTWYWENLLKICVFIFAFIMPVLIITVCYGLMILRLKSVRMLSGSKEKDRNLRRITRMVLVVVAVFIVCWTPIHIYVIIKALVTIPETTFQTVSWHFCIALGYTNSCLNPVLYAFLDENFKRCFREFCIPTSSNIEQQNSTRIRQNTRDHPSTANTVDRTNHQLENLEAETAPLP
compound,measurement,setting,value
CC[C@H](C)[C@H](NC(=O)[C@H](CCCN=C(N)N)NC(=O)[C@H](CCCN=C(N)N)NC(=O)[C@H](CC(C)C)NC(=O)[C@H](Cc1ccccc1)NC(=O)CNC(=O)CNC(=O)[C@@H](N)Cc1ccc(O)cc1)C(=O)N[C@@H](CCCN=C(N)N)C(=O)N1CCC[C@H]1C(=O)N[C@@H](CCCCN)C(=O)N[C@@H](CC(C)C)C(=O)N[C@@H](CCCCN)C(N)=O [dynA1-13],EC50,[1],0.00501 nM
same,EC50,[2],0.204 nM
same,"serum stability, amount remaining, Figure S15",[3],100
same,"serum stability, amount remaining, Figure S15",[3]; 40 min,30
same,"serum stability, amount remaining, Figure S15",[3]; 1 h,6
same,EC50,[4],4.9 ± 1.8 nM
same,EC50,[5],0.0302 nM
same,EC50,[6],0.148 nM
same,EC50,[7],6.61 nM
same,remaining at 5 min,[8],106%
same,remaining at 10 min,[8],85%
same,remaining at 20 min,[8],66%
same,remaining at 40 min,[8],33%
same,remaining at 1 h,[8],7%
same,remaining at 2 h,[8],2%
same,remaining at 4 h,[8],0%
same,remaining at 6 h,[8],0.1%
same,remaining at 24 h,[8],0.1%
same,remaining at 48 h,[8],5%
same,EC50,[9],0.617 nM
same,EC50,[10],1.32 nM
same,EC50,[11],0.0437 nM
same,EC50,[12],7.94 nM
same,EC50,[13]; EC50 β-arrestin-2 recruitment,31 nM
same,EC50,[13]; potency (log EC50) β-arrestin-3,31 nM
"C=CCN1CC[C@]23c4c5ccc(O)c4O[C@H]2[C@H](N)CC[C@@]3(O)[C@H]1C5 [β-NalA, β-naloxamine]",Ki,[14],72 nM
same,"specific [3H]DPN binding, normalized to 100%",[14]; Log [ligand] (M) -5,4.737 and -0.7945 and 2.618
same,"specific [3H]DPN binding, normalized to 100%",[14]; Log [ligand] (M) -5.5,7.624 and 1.593 and 6.477
same,"specific [3H]DPN binding, normalized to 100%",[14]; Log [ligand] (M) -6,15.6906 and 8.934 and 15.8979
same,"specific [3H]DPN binding, normalized to 100%",[14]; Log [ligand] (M) -6.5,35.1232 and 21.428 and 37.6169
same,"specific [3H]DPN binding, normalized to 100%",[14]; Log [ligand] (M) -7,55.6281 and 51.2816 and 59.6036
same,"specific [3H]DPN binding, normalized to 100%",[14]; Log [ligand] (M) -7.5,78.1171 and 80.8645 and 81.4583
same,"specific [3H]DPN binding, normalized to 100%",[14]; Log [ligand] (M) -8,95.8025 and 95.1499 and 93.7293
same,"specific [3H]DPN binding, normalized to 100%",[14]; Log [ligand] (M) -8.5,97.8462 and 101.481 and 96.8345
same,"specific [3H]DPN binding, normalized to 100%",[14]; Log [ligand] (M) -9,98.6307 and 97.8789 and 97.5636
same,"specific [3H]DPN binding, normalized to 100%",[14]; Log [ligand] (M) -9.5,100
same,EC50,[4],130 nM
same,Emax,"[4]; HEK-293T, read-out: Emax cAMP assay",61%
same,"agonist response at DOR, Figure S13b",[15]; Log [ligand] (M) -5,29.5 and 25.6
same,"agonist response at DOR, Figure S13b",[15]; Log [ligand] (M) -5.5,26.4 and 22
same,"agonist response at DOR, Figure S13b",[15]; Log [ligand] (M) -6.5,11.6 and 22.3
same,"agonist response at DOR, Figure S13b",[15]; Log [ligand] (M) -7,11.8 and 10.9 and 6.8
same,EC50 (M) DOR,[15]; [35S]GTPγS,no stimulation up to 10 µM
same,EC50,[16],150 nM
same,Emax,[16],22%
same,"stimulation of [35S]GTPγS binding, normalized",[16]; Log [ligand] (M) -5,26.3 and 15.7 and 17.2
same,"stimulation of [35S]GTPγS binding, normalized",[16]; Log [ligand] (M) -6,26.7 and 25.9 and 13
same,"stimulation of [35S]GTPγS binding, normalized",[16]; Log [ligand] (M) -6.5,25.5 and 13.8
same,"stimulation of [35S]GTPγS binding, normalized",[16]; Log [ligand] (M) -7,15.4 and 11.8 and 3.2
same,"stimulation of [35S]GTPγS binding, normalized",[16]; Log [ligand] (M) -7.5,4.1
same,"stimulation of [35S]GTPγS binding, normalized",[16]; Log [ligand] (M) -8,17.5 and 5.8 and 1.8
same,"stimulation of [35S]GTPγS binding, normalized",[16]; Log [ligand] (M) -8.5,4
same,"stimulation of [35S]GTPγS binding, normalized",[16]; Log [ligand] (M) -9,20.6 and 20.7 and 0
same,"stimulation of [35S]GTPγS binding, normalized",[16]; Log [ligand] (M) -10,8.5 and 3.1 and 0.3
same,"stimulation of [35S]GTPγS binding, normalized",[16]; Log [ligand] (M) -11,8.8 and 6 and 1
same,"stimulation of [35S]GTPγS binding, normalized",[16]; Log [ligand] (M) -12,2
same,"agonist response at MOR, Figure S13a",[17]; Log [ligand] (M) -9,0.0
same,EC50 (M) MOR,[17]; [35S]GTPγS,no stimulation up to 10 µM
same,EC50,[13],15 nM
same,β-arrestin-3 (Figure 3j),[13],50.66
same,Emax,"[13]; HEK-293T, read-out: Emax β-arrestin-2 recruitment",51%
same,"β-arrestin-2 recruitment, normalized",[13]; Log [ligand] (M) -5,75.0642 and 33.7213 and 53.9146
same,"β-arrestin-2 recruitment, normalized",[13]; Log [ligand] (M) -6,47.1252 and 26.1295 and 56.8071
same,"β-arrestin-2 recruitment, normalized",[13]; Log [ligand] (M) -7,55.6969 and 39.8004 and 43.7179
same,"β-arrestin-2 recruitment, normalized",[13]; Log [ligand] (M) -8,23.8448 and 3.34 and 20.2841
same,"β-arrestin-2 recruitment, normalized",[13]; Log [ligand] (M) -9,18.9925 and 16.6241
same,"β-arrestin-2 recruitment, normalized",[13]; Log [ligand] (M) -10,9.149 and -15.1009 and 26.0906
